Reference: ChEMBL document CHEMBL3045888, “Synthesis and anti-hypertensive activity of novel sulphadimidine derivatives” (Med Chem Res, 2012)
Calls of active or inactive are those of the source. No cut-off for these calls is given here.

Test system: Rattus norvegicus
Test: Antihypertensive activity in hypertensive Rattus norvegicus Sprague-Dawley (rat) model assessed as reduction in mean systolic blood pressure level at 0.3 mg/kg, ip after 1 hr by non-invasive tail cuff method
Format: functional, organism-based
Parameters: dose 0.3 mg/kg
Conditions: Artery

| Structure (SMILES) | Activity |
| --- | --- |
| CCN(Cc1ccccc1)c1ccc(/N=N\c2ccc(S(=O)(=O)Nc3nc(C)cc(C)n3)cc2)cc1 | Active |
| COc1cc2nc(N3CCN(C(=O)c4ccco4)CC3)nc(N)c2cc1OC | Active |
| CCN(CC)c1ccc(/N=N\c2ccc(S(=O)(=O)Nc3nc(C)cc(C)n3)cc2)cc1 | Active |
| Cc1cc(C)nc(NS(=O)(=O)c2ccc(/N=N\c3ccc(N(C)C)cc3)cc2)n1 | Active |
| CCNc1ccc(/N=N\c2ccc(S(=O)(=O)Nc3nc(C)cc(C)n3)cc2)cc1 | Active |
